Like-named read-outs stand apart in the source and are kept apart here.
What was measured:
Format in all cases: cell-based
[1] = system: HBV rcDNA in HepDE19 cells; experiment: HepDE19 assay with bDNA quantitation of HBV rcDNA; conditions: Hepatitis B virus
Source text: (§1) The invention further provides a method of screening compounds for activity against HBV, as exemplified herein. In certain embodiments, the method comprises a HepDE19 assay with bDNA quantitation of HBV rcDNA. HepDE19 cell culture system is a HepG2 (human hepatocarcinoma) derived cell line that supports HBV DNA replication and cccDNA formation in a tetracycline (Tet)-regulated manner and produces HBV rcDNA and a detectable reporter molecule dependent on the production and maintenance of cccDNA (Tavis & Lomonosova, 2015, Antiviral Res. 118:132-138). In certain non-limiting embodiments, HepDE19 (50,000 cells/well) are plated in 96 well collagen-coated tissue-culture treated microtiter plates in DMEM/F12 medium supplemented with 10% fetal bovine serum, 1% penicillin-streptomycin and 1 μg/ml tetracycline and incubated in a humidified incubator at 37° C. and 5% CO2 overnight. Next day, the cells are switched to fresh medium without tetracycline and incubated for 4 hrs at 37° C. and 5% CO2. The cells are treated with fresh Tet-free medium with compounds at concentrations starting at 25 μM and a serial, ½ log, 8-point, titration series in duplicate. The final DMSO concentration in the assay is 0.5%. The plates are incubated for 7 days in a humidified incubator at 37° C. and 5% CO2. Following a 7 day-incubation, the level of rcDNA present in the inhibitor-treated wells is measured using a Quantigene 2.0 bDNA assay kit (Affymetrix, Santa Clara, Calif.) with HBV specific custom probe set and manufacturer's instructions.
In order to differentiate HBV RNaseH inhibitors from other classes of HBV inhibitors (such as, for example, nucleos(t)ide analogs or capsid inhibitors), the assay method is configured by incorporating the quantitation of both the minus-strand and the plus-strand of HBV rcDNA levels using specifically designed HBV probe sets. This is based on the observation that inhibition of RNaseH enzyme activity results in a block of the synthesis of the plus strand synthesis by the viral polymerase that follows the synthesis of the minus-strand of rcDNA (Guo, et al., 2007, J. Virol. 81:12472-12484). […] In contrast, treatment with HBV inhibitors such as a nucleos(t)ide analogs or capsid inhibitors reduces production of both strands of HBV rcDNA in cells. Concurrently, the effect of compounds on cell viability can be assessed using replicate plates, plated at a density of 5,000 cells/well and incubated for 4 days, to determine the ATP content as a measure of cell viability using the cell-titer glo reagent (CTG; Promega Corporation, Madison, Wis.) as per manufacturer's instructions. The plates are read using a Victor luminescence plate reader (PerkinElmer Model 1420 Multilabel counter), and the relative luminescence units (RLU) data generated from each well was calculated as % inhibition of the untreated control wells and analyzed using XL-Fit module in Microsoft Excel to determine EC50 and EC90 (bDNA) and CC50 (CTG) values using a 4-parameter curve fitting algorithm.
HepDE19 cell culture system is a HepG2 (human hepatocarcinoma) derived cell line that supports HBV DNA replication and cccDNA formation in a tetracycline (Tet)-regulated manner and produces HBV rcDNA and a detectable reporter molecule dependent on the production and maintenance of cccDNA (Guo, et al., 2007, J. Virol. 81:12472-12484). HepDE19 (50,000 cells/well) were plated in 96 well collagen-coated tissue-culture treated microtiter plates in DMEM/F12 medium supplemented with 10% fetal bovine serum, 1% penicillin-streptomycin and 1μg/ml tetracycline and incubated in a humidified incubator at 37° C. and 5% CO2 overnight. Next day, the cells were switched to fresh medium without tetracycline and incubated for 4 hrs at 37° C. and 5%CO2. The cells were treated with fresh Tet-free medium with compounds at concentrations starting at 25 μM and a serial, ½ log, 8-point, titration series in duplicate. The final DMSO concentration in the assay was 0.5%. […]

[2] = system: HA-tagged HBeAg (HBV) in DESHAe82 cells; experiment: AlphaLisa eAg assay: HA-HBeAg level in DESHAe82 cell culture (anti-HBV / anti-cccDNA activity); conditions: Hepatitis B virus, 216 h, read-out: AlphaLisa_eAg EC50 (μM)
Description: Evaluation of anti-HBV activity of the compounds in in vitro cell culture studies was conducted using a modification of the assay system described in Cai et al., 2012, Antimicrobial Agents Chemotherapy 56(8):4277-88 and PCT/EP/2015/06838. In the DESHAe82 cell culture system, the HA epitope-tagged secreted HBV “e antigen” (HBeAg) and HBV precore RNA are produced only from the cccDNA circular template that is formed after HBV replication in absence of Tetracycline (Tet). The DESHAe82 cell line produces high levels of cccDNA synthesis and HA-HBeAg, and high specific readout signals with low noise. Two assay systems, a chemiluminescence ELISA (CLIA) and a proximity […] assay (AlphaLISA) were developed and used for high-sensitivity detection of HA-tagged HBeAg.
To test the compound, DESHAe82 were plated in 96 well tissue-culture treated microtiter plates in DMEM/F12 medium supplemented with 10% fetal bovine serum+1% penicillin-streptomycin with Tet, and incubated in a humidified incubator at 37° C. and 5% CO2 overnight. Next day, the cells were switched to fresh medium without Tet and treated with a test compound, over a range of concentrations (compound was solubilized in 100% DMSO before dilution in cell culture media, and the final DMSO concentration in the assay was 0.5%), and incubated for a duration of 9 days in a humidified incubator at 37° C. and 5% CO2. Untreated negative control samples (0.5% DMSO only) were included on each plate in multiple wells. On day 9, media was harvested and removed to a fresh plate, and level of HA-HBeAg was determined by CLIA or AlphaLISA. Anti-cccDNA activity of each test compound concentration was calculated as a percentage of HA-HBeAg signal detected in negative control samples versus compound-treated samples, and EC50 value for each compound was defined as the concentration that reduced the HA-HBeAg signal by 50%.

[3] = system: plus-strand of HBV rcDNA in HepDE19 cells; experiment: HepDE19 assay with bDNA quantitation of the plus-strand of HBV rcDNA; conditions: Hepatitis B virus
Source text: as §1
In order to differentiate HBV RNaseH inhibitors from other classes of HBV inhibitors (such as, for example, nucleos(t)ide analogs or capsid inhibitors), the assay method is configured by incorporating the quantitation of both the minus-strand and the plus-strand of HBV rcDNA levels using specifically designed HBV probe sets. […] Concurrently, the effect of compounds on cell viability can be assessed using replicate plates, plated at a density of 5,000 cells/well and incubated for 4 days, to determine the ATP content as a measure of cell viability using the cell-titer glo reagent (CTG; Promega Corporation, Madison, Wis.) as per manufacturer's instructions. The plates are read using a Victor luminescence plate reader (PerkinElmer Model 1420 Multilabel counter), and the relative luminescence units (RLU) data generated from each well was calculated as % inhibition of the untreated control wells and analyzed using XL-Fit module in Microsoft Excel to determine EC50 and EC90 (bDNA) and CC50 (CTG) values using a 4-parameter curve fitting algorithm. […]

[4] = 168 h, HepDE19 cells, 7 day incubation, top concentration 25 μM, read-out: bDNA_RC DNA EC50
[5] = 168 h, HepDE19 cells, 7 day incubation, plus-strand probe set, top concentration 25 μM, read-out: bDNA_RC DNA PS EC50
[6] = HepDE19, 168 h, read-out: bDNA_RC DNA EC50 (μM)

Row | Compound | EC50 [1, 4] | EC50 [2] | EC50 [3, 5] | EC50 [1, 6] | EC50 ([3]; HepDE19, 168 h, read-out: bDNA_RC DNA PS EC50 (μM))
1 | CCOC(=O)C1C(=O)N(O)C(=O)c2ccc(OC)nc21 (stereo not shown) [Compound 1, Ethyl 6-hydroxy-2-methoxy-5,7-dioxo-5,6,7,8-tetrahydro-1,6-naphthyridine-8-carboxylate] | > 25 µM | 2.4 µM | – | – | –
2 | CCN(CC)C(=O)C1C(=O)N(O)C(=O)c2ccc(OC)nc21 (stereo not shown) [Compound 2, N,N-diethyl-6-hydroxy-2-methoxy-5,7-dioxo-5,6,7,8-tetrahydro-1,6-naphthyridine-8-carboxamide] | > 25 µM | 1.5 µM | 11.2 µM | – | –
3 | COc1ccc2c(n1)C(C(=O)Nc1ccc(Cl)cc1)C(=O)N(O)C2=O (stereo not shown) [Compound 3, N-(4-chlorophenyl)-6-hydroxy-2-methoxy-5,7-dioxo-5,6,7,8-tetrahydro-1,6-naphthyridine-8-carboxamide] | – | 9.6 µM | – | 9.4 µM | 16 µM
4 | COc1ccc2c(n1)C(C(=O)Nc1ccc(F)cc1)C(=O)N(O)C2=O (stereo not shown) [Compound 4, N-(4-fluorophenyl)-6-hydroxy-2-methoxy-5,7-dioxo-5,6,7,8-tetrahydro-1,6-naphthyridine-8-carboxamide] | – | 9.6 µM | – | > 25 µM | –
5 | COc1ccc2c(n1)C(C(=O)NCc1ccc(Cl)cc1)C(=O)N(O)C2=O (stereo not shown) [Compound 5, N-(4-chlorobenzyl)-6-hydroxy-2-methoxy-5,7-dioxo-5,6,7,8-tetrahydro-1,6-naphthyridine-8-carboxamide] | > 25 µM | > 50 µM | > 25 µM | – | –
6 | O=C(NCc1ccc(F)cc1)C1C(=O)N(O)C(=O)c2ccc(O)nc21 (stereo not shown) [Compound 6, N-(4-fluorobenzyl)-2,6-dihydroxy-5,7-dioxo-5,6,7,8-tetrahydro-1,6-naphthyridine-8-carboxamide] | > 25 µM | 3.6 µM | 15 µM | – | –

Source: patent US10358447B2, “Substituted 2-N-hydroxy-1,3-dioxo-1,2,3,4-tetrahydronaphthyridines, and methods of making and using same” (ARBUTUS BIOPHARMA CORPORATION, priority 2017, dated 2019)
